Data reported in patent US9113629B2, “4-amino-6-(4-substituted-phenyl)-picolinates and 6-amino-2-(4-substituted-phenyl)-pyrimidine-4-carboxylates and their use as herbicides” (DOW AGROSCIENCES LLC, priority 2013, dated 2015).
Where two headings read alike, the source gives them in different places.

Legend:
[1] = system: Key Broadleaf Weed and Crop Species; test: Post-emergent Test II herbicidal activity (Table 5); format: in vivo; settings: post-emergence, 336 h, 14 days after application; for pest or weed control at 70 g/ha: application rate 70 g ai/ha; for pest or weed control at 140 g/ha: application rate 140 g ai/ha
How it was run: (§1)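 Greenhouse post-emergent assay: seedlings (first/second true leaf) in Metro-Mix 360 were sprayed at 187 L/ha at a top rate plus twofold dilutions down to 1/16×; solvent-blank controls were included. Percent visual injury was read at 14 d.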

[2] = system: Key Grass and Sedge Weeds as well as Grass Crops; test: Post-emergent Test II herbicidal activity (Table 6); format: in vivo; settings: post-emergence, 336 h; for pest or weed control at 70 g/ha: 70 g ai/ha; for pest or weed control at 140 g/ha: 140 g ai/ha
How it was run: as §1

[3] = ABUTH: velvetleaf (Abutilon theophrasti), read-out: Visual Growth Reduction (%) 14 Days After Application, ABUTH
[4] = AMARE: redroot pigweed (Amaranthus retroflexus), read-out: Visual Growth Reduction (%) 14 Days After Application, AMARE
[5] = BRSNN: oilseed-rape, canola (Brassica napus), read-out: Visual Growth Reduction (%) 14 Days After Application, BRSNN
[6] = CHEAL: lambsquarters (Chenopodium album), read-out: Visual Growth Reduction (%) 14 Days After Application, CHEAL
[7] = EPHHL: wild poinsettia (Euphorbia heterophylla), read-out: Visual Growth Reduction (%) 14 Days After Application, EPHHL
[8] = HELAN: sunflower (Helianthus annuus), read-out: Visual Growth Reduction (%) 14 Days After Application, HELAN
[9] = VIOTR: wild pansy (Viola tricolor), read-out: Visual Growth Reduction (%) 14 Days After Application, VIOTR
[10] = CYPES: yellow nutsedge (Cyperus esculentus), read-out: Visual Growth Reduction (%) 14 Days After Application, CYPES
[11] = DIGSA: crabgrass (Digitaria sanguinalis), read-out: Visual Growth Reduction (%) 14 Days After Application, DIGSA
[12] = ECHCG: barnyardgrass (Echinochloa crus-galli), read-out: Visual Growth Reduction (%) 14 Days After Application, ECHCG
[13] = ORYSA: rice (Oryza sativa), crop, read-out: Visual Growth Reduction (%) 14 Days After Application, ORYSA
[14] = SETFA: giant foxtail (Setaria faberi), read-out: Visual Growth Reduction (%) 14 Days After Application, SETFA
[15] = SORVU: grain sorghum (Sorghum vulgare), read-out: Visual Growth Reduction (%) 14 Days After Application, SORVU
[16] = TRZSS (wheat, Triticum aestivum), crop, read-out: Visual Growth Reduction (%) 14 Days After Application, TRZSS
[17] = ZEAMX: maize, corn (Zea mays), crop, read-out: Visual Growth Reduction (%) 14 Days After Application, ZEAMX

COc1c(N)nc(-c2ccc(Br)cc2)nc1C(=O)O [Compound 54]
pest or weed control at 70 g/ha [1, 3]: 85 to 94% | pest or weed control at 140 g/ha [1, 3]: 85 to 94% | pest or weed control at 70 g/ha [1, 4]: 95 to 100% | pest or weed control at 140 g/ha [1, 4]: 95 to 100% | pest or weed control at 70 g/ha [1, 5]: 95 to 100% | pest or weed control at 140 g/ha [1, 5]: 95 to 100% | pest or weed control at 70 g/ha [1, 6]: 95 to 100% | pest or weed control at 140 g/ha [1, 6]: 95 to 100% | pest or weed control at 70 g/ha [1, 7]: 95 to 100% | pest or weed control at 140 g/ha [1, 7]: 95 to 100% | pest or weed control at 70 g/ha [1, 8]: 85 to 94% | pest or weed control at 140 g/ha [1, 8]: 95 to 100% | pest or weed control at 70 g/ha [1, 9]: 30 to 44% | pest or weed control at 140 g/ha [1, 9]: 45 to 59% | pest or weed control at 70 g/ha [2, 10]: 45 to 59% | pest or weed control at 140 g/ha [2, 10]: 95 to 100% | pest or weed control at 70 g/ha [2, 11]: 0 to 29% | pest or weed control at 140 g/ha [2, 11]: 60 to 74% | pest or weed control at 70 g/ha [2, 12]: 95 to 100% | pest or weed control at 140 g/ha [2, 12]: 95 to 100% | pest or weed control at 70 g/ha [2, 13]: 0 to 29% | pest or weed control at 140 g/ha [2, 13]: 0 to 29% | pest or weed control at 70 g/ha [2, 14]: 75 to 84% | pest or weed control at 140 g/ha [2, 14]: 75 to 84% | pest or weed control at 70 g/ha [2, 15]: 60 to 74% | pest or weed control at 140 g/ha [2, 15]: 75 to 84% | pest or weed control at 70 g/ha [2, 16]: 45 to 59% | pest or weed control at 140 g/ha [2, 16]: 45 to 59% | pest or weed control at 70 g/ha [2, 17]: 95 to 100% | pest or weed control at 140 g/ha [2, 17]: 95 to 100%
